Test results reported in patent publication US20190071670A1, “Methods Of Treatment For Alpha-1 Antitrypsin Deficiency” (Arrowhead Pharmaceuticals, Inc., priority 2016, published 2019).
Where two headings read alike, the source gives them in different places.

Columns and labels:
[1] = system: AAT; settings: cynomolgus macaque
Experimental: MLP delivery polymer and Duplex Pair SEQ ID NO: 5/6 (AAT RNAi agent) were made and combined in a pharmaceutically acceptable buffer. On day 1, cynomolgus macaque (Macaca fascicularis) primates (male and female, 3 to 9 kg) were co-injected with MLP delivery polymer and Duplex Pair SEQ ID NO: 5/6 at different dose combinations. The dose combinations injected were: 2.0 mg/kg MLP delivery polymer+4.0 AAT RNAi agent (n=3), 3 mg/kg MLP delivery polymer+1.5 mg/kg AAT RNAi agent (n=2), 3.0 mg/kg MLP delivery polymer+3.0 mg/kg AAT RNAi agent (n=3), 3.0 mg/kg MLP delivery polymer+6.0 mg/kg AAT RNAi agent (n=2), 6.0 mg/kg MLP delivery polymer+12 mg/kg AAT RNAi trigger (n=3) ([…] conversion factor used to determine RNAi agent concentration) and 12 mg/kg MLP delivery polymer+6.0 mg/kg AAT RNAi agent (n=12). For each injection the MLP delivery polymer+AAT RNAi agent (2 ml/kg) was injected into the saphenous vein using a 22 to 25 gauge intravenous catheter. At the indicated time points, blood samples were drawn and analyzed for AAT and toxicity markers. Blood was collected from the femoral vein and primates were fasted overnight before all blood collections. Blood tests for blood urea nitrogen (BUN), alanine transaminase (ALT), aspartate aminotransferase (AST), and creatinine were performed on an automated chemistry analyzer at Meriter laboratories or BASi. AAT levels were determined on a Cobas Integra 400 (Roche Diagnostics) according to the manufacturer's recommendations.
Cynomolgus macaque primates were given five doses of AAT RNAi trigger+MLP delivery polymer at six week intervals. Each dose contained MLP delivery polymer and Duplex Pair SEQ ID NO: 5/6 (AAT RNAi agent) at a 1:2 weight to weight ratio of the MLP to RNAi agent. The first injection was on day 1. The dose combinations injected were: 2.0 mg/kg MLP delivery polymer+4.0 AAT RNAi agent (n=2) and 3 mg/kg MLP delivery polymer+6 mg/kg AAT RNAi agent (n=2). Blood was collected at intervals throughout the study and AAT levels were measured from the serum as described.

[2] = system: liver morphology of PiZ mice; assay: Liver histology (H&E) of PiZ mice; type: in vivo
Experimental: AAT RNAi agent was administered to PiZ mice. Each mouse received a biweekly administration of an intravenous (IV) dose of 8 mg/kg AAT RNAi agent with 8 mg/kg of MLP delivery polymer for 8 weeks. Mice were bled weekly to monitor hAAT levels in serum and were sacrificed on day 57 after administration of AAT RNAi agent with MLP delivery polymer. Liver samples were harvested and fixed in 10% neutral-buffered formalin and embedded in paraffin. Inflammatory infiltration was assessed by H&E staining. […] PiZ mice injected biweekly with saline had significant globule accumulation as well as inflammatory infiltration around damaged or dead hepatocytes. Aggregation of Z-hAAT was visualized by performing diastase-resistant periodic acid Schiff (PAS-D) staining on liver sections. Diastase digestion of glycogen prior to performing a PAS stain allows positive staining of Z-AAT protein accumulation, or “globules”. […] The number of globules, the size of the globules and the area of the liver covered by globules was digitally quantitated from liver specimens stained with PAS-D. Mice treated with AAT RNAi agent had 85% fewer globules, 85% smaller globules, and 96% less area of the liver covered with globules than saline-injected controls (FIG. 3).
Baseline mice had significant globule accumulation with globules that were 5-10 microns in diameter, compressed nuclei, apoptosis and inflammatory cell infiltration. Saline treated mice had significant globule accumulation with globules that were 25-35 microns in diameter, compressed nuclei, and inflammatory cell infiltration.

[3] = system: Z-hAAT; assay: Semi-quantitative Western blot of soluble (monomer) and insoluble (polymer) Z-hAAT in PiZ mouse liver; type: in vivo, human (expressed in PiZ mice); settings: PiZ mice liver; four biweekly IV doses 8 mg/kg with 8 mg/kg MLP delivery polymer for 8 weeks
[4] = PiZ mice, AAT RNAi agent + MLP treated, n = 16
[5] = male PiZ mice, biweekly AAT RNAi agent with MLP (Example 9)

## Duplex Pair SEQ ID NO: 5/6: double-stranded AAT RNAi agent: modified antisense strand SEQ ID NO: 5 annealed to Chol-TEG sense strand SEQ ID NO: 6 (antisense TGGAACUUGGUGAUGAUAUTT; sense UAUAUAUCAUCACCAAGUUCCAT; Chol-TEG on sense strand; chemical modifications; antisense strand of dsRNA; modified_base 7 /mod_base = “2′-3′ seco corresponding nucleotide”; modified_base 2,4,6,8,10,12,14,16,18 /mod_base = “2′-deoxy-2′-fluoro corresponding nucleoside”; modified_base 3,5,9,11,13,15,17,19 /mod_base = “2′-O-methyl corresponding nucleoside”; modified_base 21 /mod_base = “5′-phosphorothioate corresponding nucleotide”; sense strand of dsRNA; modified_base 2 /mod_base = “2′-hydroxy corresponding nucleoside”; modified_base 4,6,8,10,12,14,16,18,20,22 /mod_base = “2′-deoxy-2′-fluoro corresponding nucleoside”; …)
[1]; 2.0 mg/kg MLP delivery polymer + 4.0 AAT RNAi agent, five doses at six week intervals
  Serum AAT levels measured six weeks after each treatment: rebounded less with each additional treatment
[1]; 2.0 mg/kg MLP delivery polymer + 4.0 AAT RNAi agent, six week intervals, following the fourth treatment
  Serum AAT reduced: 85%
[1]; 2.0 mg/kg MLP delivery polymer + 4.0 AAT RNAi agent, following the first treatment
  Serum AAT reduced: 80%
[1]; all dose combinations with MLP delivery polymer
  knockdown of AAT: Significant knockdown
[1]; co-injection MLP 2.0 mg/kg + SEQ ID 5/6 4.0 mg/kg on day 1, Day 2
  Percent AAT Knockdown in NHPs: 11%
[1]; co-injection MLP 2.0 mg/kg + SEQ ID 5/6 4.0 mg/kg on day 1, Day 3
  Percent AAT Knockdown in NHPs: 27%
[1]; co-injection MLP 2.0 mg/kg + SEQ ID 5/6 4.0 mg/kg on day 1, Day 8
  Percent AAT Knockdown in NHPs: 63%
[1]; co-injection MLP 2.0 mg/kg + SEQ ID 5/6 4.0 mg/kg on day 1, Day 11
  Percent AAT Knockdown in NHPs: 73%
[1]; co-injection MLP 2.0 mg/kg + SEQ ID 5/6 4.0 mg/kg on day 1, Day 15
  Percent AAT Knockdown in NHPs: 81%
[1]; co-injection MLP 2.0 mg/kg + SEQ ID 5/6 4.0 mg/kg on day 1, Day 22
  Percent AAT Knockdown in NHPs: 85%
[1]; co-injection MLP 2.0 mg/kg + SEQ ID 5/6 4.0 mg/kg on day 1, Day 29
  Percent AAT Knockdown in NHPs: 80%
[1]; co-injection MLP 2.0 mg/kg + SEQ ID 5/6 4.0 mg/kg on day 1, Pretest
  Percent AAT Knockdown in NHPs: 0%
[1]; co-injection MLP 3.0 mg/kg + SEQ ID 5/6 1.5 mg/kg on day 1, Day 2
  Percent AAT Knockdown in NHPs: 16%
[1]; co-injection MLP 3.0 mg/kg + SEQ ID 5/6 1.5 mg/kg on day 1, Day 3
  Percent AAT Knockdown in NHPs: 30%
[1]; co-injection MLP 3.0 mg/kg + SEQ ID 5/6 1.5 mg/kg on day 1, Day 8
  Percent AAT Knockdown in NHPs: 59%
[1]; co-injection MLP 3.0 mg/kg + SEQ ID 5/6 1.5 mg/kg on day 1, Day 11
  Percent AAT Knockdown in NHPs: 70%
[1]; co-injection MLP 3.0 mg/kg + SEQ ID 5/6 1.5 mg/kg on day 1, Day 15
  Percent AAT Knockdown in NHPs: 74%
[1]; co-injection MLP 3.0 mg/kg + SEQ ID 5/6 1.5 mg/kg on day 1, Day 22
  Percent AAT Knockdown in NHPs: 76%
[1]; co-injection MLP 3.0 mg/kg + SEQ ID 5/6 1.5 mg/kg on day 1, Day 29
  Percent AAT Knockdown in NHPs: 74%
[1]; co-injection MLP 3.0 mg/kg + SEQ ID 5/6 1.5 mg/kg on day 1, Day 36
  Percent AAT Knockdown in NHPs: 70%
[1]; co-injection MLP 3.0 mg/kg + SEQ ID 5/6 1.5 mg/kg on day 1, Day 43
  Percent AAT Knockdown in NHPs: 63%
[1]; co-injection MLP 3.0 mg/kg + SEQ ID 5/6 1.5 mg/kg on day 1, Day 50
  Percent AAT Knockdown in NHPs: 51%
[1]; co-injection MLP 3.0 mg/kg + SEQ ID 5/6 1.5 mg/kg on day 1, Pretest
  Percent AAT Knockdown in NHPs: 0%
[1]; co-injection MLP 3.0 mg/kg + SEQ ID 5/6 3.0 mg/kg on day 1, Day 2
  Percent AAT Knockdown in NHPs: 15%
[1]; co-injection MLP 3.0 mg/kg + SEQ ID 5/6 3.0 mg/kg on day 1, Day 3
  Percent AAT Knockdown in NHPs: 29%
[1]; co-injection MLP 3.0 mg/kg + SEQ ID 5/6 3.0 mg/kg on day 1, Day 8
  Percent AAT Knockdown in NHPs: 63%
[1]; co-injection MLP 3.0 mg/kg + SEQ ID 5/6 3.0 mg/kg on day 1, Day 11
  Percent AAT Knockdown in NHPs: 74%
[1]; co-injection MLP 3.0 mg/kg + SEQ ID 5/6 3.0 mg/kg on day 1, Day 15
  Percent AAT Knockdown in NHPs: 82%
[1]; co-injection MLP 3.0 mg/kg + SEQ ID 5/6 3.0 mg/kg on day 1, Day 22
  Percent AAT Knockdown in NHPs: 88%
[1]; co-injection MLP 3.0 mg/kg + SEQ ID 5/6 3.0 mg/kg on day 1, Day 29
  Percent AAT Knockdown in NHPs: 85%
[1]; co-injection MLP 3.0 mg/kg + SEQ ID 5/6 3.0 mg/kg on day 1, Pretest
  Percent AAT Knockdown in NHPs: 0%
[1]; co-injection MLP 3.0 mg/kg + SEQ ID 5/6 6.0 mg/kg on day 1, Day 2
  Percent AAT Knockdown in NHPs: 10%
[1]; co-injection MLP 3.0 mg/kg + SEQ ID 5/6 6.0 mg/kg on day 1, Day 3
  Percent AAT Knockdown in NHPs: 25%
[1]; co-injection MLP 3.0 mg/kg + SEQ ID 5/6 6.0 mg/kg on day 1, Day 8
  Percent AAT Knockdown in NHPs: 63%
[1]; co-injection MLP 3.0 mg/kg + SEQ ID 5/6 6.0 mg/kg on day 1, Day 11
  Percent AAT Knockdown in NHPs: 74%
[1]; co-injection MLP 3.0 mg/kg + SEQ ID 5/6 6.0 mg/kg on day 1, Day 15
  Percent AAT Knockdown in NHPs: 82%
[1]; co-injection MLP 3.0 mg/kg + SEQ ID 5/6 6.0 mg/kg on day 1, Pretest
  Percent AAT Knockdown in NHPs: 0%
[1]; co-injection MLP 6.0 mg/kg + SEQ ID 5/6 12.0 mg/kg on day 1, Day 2
  Percent AAT Knockdown in NHPs: 18%
[1]; co-injection MLP 6.0 mg/kg + SEQ ID 5/6 12.0 mg/kg on day 1, Day 3
  Percent AAT Knockdown in NHPs: 30%
[1]; co-injection MLP 6.0 mg/kg + SEQ ID 5/6 12.0 mg/kg on day 1, Day 8
  Percent AAT Knockdown in NHPs: 61%
[1]; co-injection MLP 6.0 mg/kg + SEQ ID 5/6 12.0 mg/kg on day 1, Pretest
  Percent AAT Knockdown in NHPs: 0%
[1]; co-injection MLP 12.0 mg/kg + SEQ ID 5/6 6.0 mg/kg on day 1, Day 2
  Percent AAT Knockdown in NHPs: 3%
[1]; co-injection MLP 12.0 mg/kg + SEQ ID 5/6 6.0 mg/kg on day 1, Day 3
  Percent AAT Knockdown in NHPs: 19%
[1]; co-injection MLP 12.0 mg/kg + SEQ ID 5/6 6.0 mg/kg on day 1, Day 8
  Percent AAT Knockdown in NHPs: 60%
[1]; co-injection MLP 12.0 mg/kg + SEQ ID 5/6 6.0 mg/kg on day 1, Day 11
  Percent AAT Knockdown in NHPs: 84%
[1]; co-injection MLP 12.0 mg/kg + SEQ ID 5/6 6.0 mg/kg on day 1, Day 15
  Percent AAT Knockdown in NHPs: 88%
[1]; co-injection MLP 12.0 mg/kg + SEQ ID 5/6 6.0 mg/kg on day 1, Day 26
  Percent AAT Knockdown in NHPs: 91%
[1]; co-injection MLP 12.0 mg/kg + SEQ ID 5/6 6.0 mg/kg on day 1, Day 33
  Percent AAT Knockdown in NHPs: 86%
[1]; co-injection MLP 12.0 mg/kg + SEQ ID 5/6 6.0 mg/kg on day 1, Day 47
  Percent AAT Knockdown in NHPs: 76%
[1]; co-injection MLP 12.0 mg/kg + SEQ ID 5/6 6.0 mg/kg on day 1, Pretest
  Percent AAT Knockdown in NHPs: 0%
[1]; repeat dosing at six week intervals, 3 mg/kg MLP delivery polymer + 6 mg/kg, from two to thirty weeks after the first treatment
  serum AAT levels reduced: 80-90%
[2]; [4]
  Score: Inflammatory foci, Moderate (number of animals): 11
  Score: Inflammatory foci, None (number of animals): 5
  Score: Inflammatory foci, Severe (number of animals): 0
[2]; PiZ mice, AAT RNAi agent + MLP treated, n = 16, baseline 7/12, saline 13/13
  Score: Compressed nuclei (animals/total): 3/16
[2]; PiZ mice, biweekly IV 8 mg/kg with 8 mg/kg MLP delivery polymer for 8 weeks, day 57
  Liver morphology and inflammatory infiltration (H&E staining): normal morphology, no detectably inflammatory infiltrate and very rare, small Z-hAAT globules
[2]; [5]
  compressed nuclei: fewer compressed nuclei than either baseline or saline-treated mice
  inflammatory infiltration: no inflammatory infiltration
[2]; male PiZ mice, biweekly AAT RNAi agent with MLP (Example 9), baseline 5-10, saline 25-35 microns
  globule diameter: 7-10 microns
[2]; male PiZ mice, biweekly AAT RNAi agent with MLP (Example 9), baseline and saline: significant
  globule accumulation: minimal to moderate
[3]
  reduction in insoluble Z-hAAT compared to saline: 79%
  reduction in soluble Z-hAAT compared to saline: > 99%
